The source of these data is ChEMBL document CHEMBL4196092, “Synthesis and biological evaluation of nannocystin analogues toward understanding the binding role of the (2R,3S)-Epoxide in nannocystin A” (Eur J Med Chem, 2018).

Molecules are shown by their SMILES. Activity calls are given as the source filed them. No cut-off for these calls is given here. Bounds are passed on as bounds.

One assay is filed under the species Homo sapiens. In words: Inhibition of eEF1alpha protein expression in human PANC1 cells by Western blot analysis. The class given is cell-based. In general terms: In western blotting, separated proteins are transferred to a membrane and probed.
The test system of another assay is HepG2. In words: Antiproliferative activity against human HepG2 cells. The assay is classed as functional, cell-based.
Another assay concerns PANC-1. In words: Antiproliferative activity against human PANC1 cells. The class given is functional, cell-based.
Another assay relates to HCT-116. In words: Antiproliferative activity against human HCT116 cells. The class given is functional, cell-based.

On to `CC[C@H](C)[C@H]1C(=O)N[C@H](Cc2cc(Cl)c(O)c(Cl)c2)C(=O)N[C@@H](C(C)(C)O)C(=O)O[C@H](c2ccccc2)[C@H](C)/C=C/C=C(\C)[C@H](OC)C/C=C(\C)C(=O)N1C`, for which the inhibition entry in the assay listed under Homo sapiens was “Active”. The IC50 (commonly the concentration that gives 50% inhibition) in the assay on HepG2 was found to be 2.75 nM; in the assay on PANC-1, 11.3 nM; in the assay on HCT-116, 1.6 nM.
Take `CC[C@H](C)[C@H]1C(=O)N[C@H](Cc2ccc(O)c(Br)c2)C(=O)N[C@@H](C(C)(C)O)C(=O)O[C@H](c2ccccc2)[C@H](C)/C=C/C=C(\C)[C@H](OC)C/C=C(\C)C(=O)N1C`: the inhibition entry in the assay listed under Homo sapiens was “Active”. In addition, the IC50 with HepG2 stood at 5.21 nM; in the assay on PANC-1 it was 11.4 nM; in the assay with HCT-116 it was 3.88 nM.
In the same order, the values of `CC[C@H](C)[C@H]1C(=O)N[C@H](Cc2ccc(O)c(Br)c2)C(=O)N[C@@H](C(C)(C)O)C(=O)O[C@H](c2ccccc2)[C@H](C)/C=C/C=C(\C)[C@H](OC)C[C@@H]2O[C@@]2(C)C(=O)N1C` are “Active”, 2.98 nM, 9.61 nM and 1.59 nM.
For `CC[C@H](C)[C@H]1C(=O)N[C@H](Cc2ccc(O)c(Br)c2)C(=O)N[C@@H](C(C)(C)O)C(=O)O[C@H](c2ccccc2)[C@H](C)/C=C/C=C(\C)[C@H](OC)C[C@H]2O[C@]2(C)C(=O)N1C`, in that order: “Active”, above 200 nM, above 200 nM and above 200 nM.
For `CC[C@H](C)[C@H]1C(=O)N[C@H](Cc2cc(Cl)c(O)c(Cl)c2)C(=O)N[C@@H](C(C)C)C(=O)O[C@H](c2ccccc2)[C@H](C)/C=C/C=C(\C)[C@H](OC)C/C=C(\C)C(=O)N1C`, in that order: “Active”, 104 nM, 137 nM and 21.6 nM.
On to `CC[C@H](C)[C@H]1C(=O)N[C@H](Cc2cc(Cl)c(O)c(Cl)c2)C(=O)N[C@@H](C(C)C)C(=O)O[C@H](c2ccccc2)[C@H](C)/C=C/C=C(\C)[C@H](OC)C[C@@H]2O[C@@]2(C)C(=O)N1C`, for which the inhibition result in the assay filed under Homo sapiens was “Active”. Besides, the IC50 amounted to 5.65 nM with HepG2, 15.5 nM with PANC-1 and 4.25 nM with HCT-116.
For `CC[C@H](C)[C@H]1C(=O)N[C@H](Cc2cc(Cl)c(O)c(Cl)c2)C(=O)N[C@@H](C(C)(C)O)C(=O)O[C@H](c2ccccc2)[C@H](C)/C=C/C=C(\C)[C@H](OC)C[C@H]2O[C@]2(C)C(=O)N1C`, in that order: “Active”, above 200 nM, above 200 nM and above 200 nM.
As for `CC[C@H](C)[C@H]1C(=O)N[C@H](Cc2ccc(O)c(Br)c2)C(=O)N[C@@H](C(C)C)C(=O)O[C@H](c2ccccc2)[C@H](C)/C=C/C=C(\C)[C@H](OC)C/C=C(\C)C(=O)N1C`, in the assay listed under Homo sapiens, the inhibition entry is “Active”. For the same compound, the IC50 with HepG2 came out at 53.7 nM; in the assay with PANC-1, 55.8 nM; in the assay on HCT-116, 13.2 nM.
For `CC[C@H](C)[C@H]1C(=O)N[C@H](Cc2ccc(O)c(Br)c2)C(=O)N[C@@H](C(C)C)C(=O)O[C@H](c2ccccc2)[C@H](C)/C=C/C=C(\C)[C@H](OC)C[C@@H]2O[C@@]2(C)C(=O)N1C`, in that order: “Active”, 6.84 nM, 15.7 nM and 3.93 nM.
As to `CC[C@H](C)[C@H]1C(=O)N[C@H](Cc2cc(Cl)c(O)c(Cl)c2)C(=O)N[C@@H](C(C)(C)O)C(=O)O[C@H](c2ccccc2)[C@H](C)/C=C/C=C(\C)[C@H](OC)C[C@@H]2O[C@@]2(C)C(=O)N1C`, the inhibition result in the assay listed under Homo sapiens is “Active”. Moreover, the IC50 in the assay with HepG2 amounted to 3.36 nM; in the assay on PANC-1, 12.2 nM; in the assay on HCT-116, 2.11 nM.
